Among the data in PubChem BioAssay (NCI) are TGI and GI50 values, retold here.

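Cultured in 96-well plates, cells were exposed to test compound for 48 hours across five concentrations. Here, GI50 denotes the concentration required for 50% inhibition of growth. TGI: total growth inhibition.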 Bounds are passed on as bounds.

What all share (assay): inhibition of tumour cell growth, NCI panel, 48 h
Test [1] concerns UACC-257 melanoma.
Test [2] concerns TK-10 renal.
Test [3] deals with KM12 colon.
For test [4], the system named is IGROV1 ovarian.
The subject of test [5] is COLO 205 colon.
For test [6], the system named is UACC-62 melanoma.
Test [7] concerns MALME-3M melanoma.
Test [8] relates to BT-549 breast.
The subject of test [9] is SK-OV-3 ovarian.
In test [10] the test system is HOP-62 NSCLC.
In test [11] the test system is T-47D breast.
In test [12] the test system is LOX IMVI melanoma.

With `c1ccc(CCCN2C3CCC2CN(CCOC(c2ccccc2)c2ccccc2)C3)cc1`, the TGI in test [1] is 20.8 µM; in test [2], 25.6 µM; in [3], 24.2 µM; in test [4], 27 µM; in test [5] it was 4.36 µM; in test [6], 25.5 µM. Moreover, the TGI in [7] worked out at 25.2 µM; in [8], 24.9 µM; in test [9], 29.3 µM; in test [10], 31.4 µM; in test [11], 13.9 µM; in [12], 24.5 µM.
As for `CCOC(=O)CCCN`, the TGI in test [1], in test [2], in [3], in test [4], in test [5] and in [7] was above 100 µM throughout. In addition, the TGI in test [8], in [9], in [10], in test [11] and in test [12] was above 100 µM each time.
In the case of `c1ccc(C/C(=N\Nc2nc3ccccc3[nH]2)c2ccccn2)cc1`, the TGI in test [1] was 1.54 µM; in test [2], 1.83 µM; in [3] it was 15.4 µM; in test [4] it was 0.327 µM; in test [6], 2.79 µM; in test [7], 2.23 µM. Besides, the TGI was 16.1 µM in test [8]; 0.413 µM in [9]; 12.6 µM in test [10]; 15.6 µM in test [11]; 8.1 µM in [12].
Regarding `COc1cc(O)c2c(=O)c3cccc(C)c3[nH]c2c1`, the TGI in test [1], in test [2], in test [3], in [4], in test [5] and in test [6] was above 10 µM throughout. The TGI in test [7], in test [8], in test [9], in [10], in [11] and in test [12] was above 10 µM each time.
For `COC(=O)[C@H](Cc1ccccc1)NC(=O)N(CCN(CCC#N)C(=O)N[C@H](C(=O)OC)C(C)C)c1ccccc1`, the TGI in [1], in test [2], in test [3], in test [4], in test [5] and in [6] was above 100 µM each time. Also, the TGI in [7], in test [8], in test [9], in [10], in test [11] and in [12] was above 100 µM in each case.
Consider `Cc1c2ccccc2c(/C=N/NC(=O)CSCC(=O)N/N=C/c2c3ccccc3c(C)c3ccccc23)c2ccccc12`, for which the TGI is above 100 µM in test [1]; above 95.4 µM in test [2]; above 100 µM in test [3]; above 100 µM in test [4]; above 100 µM in [5]; above 100 µM in [6]. The TGI was 97.3 µM in test [7]; above 90.1 µM in test [8]; above 100 µM in test [9]; 36.1 µM in [10]; above 82.4 µM in test [11]; above 100 µM in [12]. Besides, the GI50 in [5] was above 100 µM.
Turning to `CC1=NN(c2ccccc2)C(=O)/C1=C1\SC(c2ccccc2)(c2ccccc2)c2ccccc21`, the TGI in [1], in test [2], in [3], in test [4], in test [5] and in test [6] was above 100 µM in each case. Further, the TGI in [7], in test [8], in [9], in test [10], in [11] and in test [12] was above 100 µM each time.
Regarding `O=C(Nc1ccc(Cl)cc1)c1cc(S(=O)(=O)Nc2nc3ncccc3[nH]2)c(SSc2cc(Cl)c(C(=O)Nc3ccc(Cl)cc3)cc2S(=O)(=O)Nc2nc3ncccc3[nH]2)cc1Cl`, the TGI in [1], in test [2], in test [3], in [4], in test [5] and in test [6] was above 100 µM each time. Also, the TGI in test [7], in test [8], in test [9], in test [10], in [11] and in [12] was above 100 µM in each case.
Turning to `O=C1CC(Nc2ccccc2)c2c(Cl)sc(Cl)c21` (configuration not stated), the TGI in test [1] worked out at 3.86 µM; in test [2], 3.26 µM; in [3] it was 1.94 µM; in test [4], 3.44 µM; in test [5] it was 2.68 µM; in [6], 2.69 µM. Besides, the TGI in [7] was 2.83 µM; in [8] it was 4.36 µM; in test [9] it was 26.3 µM; in [10] it was 8.1 µM; in test [11] it was above 20 µM; in [12] it was 2.09 µM.
